system: PKB Ser473 phosphorylation in Rat1-myr-HA-p110 delta cells; experiment: Reverse protein array, PKB Ser473 phosphorylation in Rat1-myr-HA-p110 delta cells; assay type: cell-based; details: Rattus norvegicus, 0.5 h, 30 minutes compound incubation, read-out: p-PKB/IC50_delta

Row | IC50 | Structure (SMILES)
1 | 63.3 nM | CCNc1cc(-c2ccc3ncc4c(c3c2)n(-c2cnc(F)cc2C)c(=O)n4C)cnc1C [Example 16.2, 8-(5-Ethylamino-6-methyl-pyridin-3-yl)-1-(6-fluoro-4-methyl-pyridin-3-yl)-3-methyl-1,3-dihydro-imidazo[4,5-c]quinolin-2-one]
2 | 32.6 nM | CNc1ncc(-c2ccc3ncc4c(c3c2)n(-c2ccc(C)nc2C)c(=O)n4C)cn1 [Example 14.4, 1-(2,6-Dimethyl-pyridin-3-yl)-3-methyl-8-(2-methylamino-pyrimidin-5-yl)-1,3-dihydro-imidazo[4,5-c]quinolin-2-one]
3 | 114 nM | COc1ccc(-n2c(=O)n(C)c3cnc4ccc(-c5cnc(CO)c(OC)c5)cc4c32)c(C)n1 [Example 11.8, 8-(6-Hydroxymethyl-5-methoxy-pyridin-3-yl)-1-(6-methoxy-2-methyl-pyridin-3-yl)-3-methyl-1,3-dihydro-imidazo[4,5-c]quinolin-2-one]
4 | 229 nM | COCCN(C)c1ccc(-n2c(=O)n(C)c3cnc4ccc(-c5cnc(N(C)C)nc5)cc4c32)c(C)n1 [Example 15.5, 8-(2-Dimethylamino-pyrimidin-5-yl)-1-{6-[(2-methoxy-ethyl)-methyl-amino]-2-methyl-pyridin-3-yl}-3-methyl-1,3-dihydro-imidazo[4,5-c]quinolin-2-one]
5 | 96 nM | CCOc1ccc(-c2ccc3ncc4c(c3c2)n(-c2cccnc2C)c(=O)n4C)cn1 [Example 2.1, 8-(6-Ethoxy-pyridin-3-yl)-3-methyl-1-(2-methyl-pyridin-3-yl)-1,3-dihydro-imidazo[4,5-c]quinolin-2-one]
6 | 326 nM | CCOc1ccc(-c2ccc3ncc4c(c3c2)n(-c2ccc(NC(=O)COC)nc2C)c(=O)n4C)cn1 [Example 20.2, N-{5-[8-(6-Ethoxy-pyridin-3-yl)-3-methyl-2-oxo-2,3-dihydro-imidazo[4,5-c]quinolin-1-yl]-6-methyl-pyridin-2-yl}-2-methoxy-acetamide]
7 | 13.3 nM | COCCN(C)c1ccc(-n2c(=O)n(C)c3cnc4ccc(-c5cnc(N)c(C(F)(F)F)c5)cc4c32)c(C)n1 [Example 15.1, 8-(6-Amino-5-trifluoromethyl-pyridin-3-yl)-1-{6-[(2-methoxy-ethyl)-methyl-amino]-2-methyl-pyridin-3-yl}-3-methyl-1,3-dihydro-imidazo[4,5-c]quinolin-2-one]
8 | 44.3 nM | COCCN(C)c1ccc(-n2c(=O)n(C)c3cnc4ccc(-c5cnc6c(ccn6C)c5)cc4c32)c(C)n1 [Example 15.7, 1-{6-[(2-Methoxy-ethyl)-methyl-amino]-2-methyl-pyridin-3-yl}-3-methyl-8-(1-methyl-1H-pyrrolo[2,3-b]pyridin-5-yl)-1,3-dihydro-imidazo[4,5-c]quinolin-2-one]
9 | 42.9 nM | Cc1cc(F)ncc1-n1c(=O)n(C)c2cnc3ccc(-c4cnc(N)c(C(F)(F)F)c4)cc3c21 [Example 16.1, 8-(6-Amino-5-trifluoromethyl-pyridin-3-yl)-1-(6-fluoro-4-methyl-pyridin-3-yl)-3-methyl-1,3-dihydro-imidazo[4,5-c]quinolin-2-one]
10 | 72 nM | COc1ncccc1-n1c(=O)n(C)c2cnc3ccc(-c4cnc5c(ccn5C)c4)cc3c21 [Example 1.7, 1-(2-Methoxy-pyridin-3-yl)-3-methyl-8-(1-methyl-1H-pyrrolo[2,3-b]pyridin-5-yl)-1,3-dihydro-imidazo[4,5-c]quinolin-2-one]
11 | 304 nM | CNc1ncc(-c2ccc3ncc4c(c3c2)n(-c2cnc(F)cc2C)c(=O)n4C)cn1 [Example 16.3, 1-(6-Fluoro-4-methyl-pyridin-3-yl)-3-methyl-8-(2-methylamino-pyrimidin-5-yl)-1,3-dihydro-imidazo[4,5-c]quinolin-2-one]
12 | 28.2 nM | CNc1cc(-c2ccc3ncc4c(c3c2)n(-c2ccc(C(F)(F)F)nc2C)c(=O)n4C)cnc1CO [Example 33.2, 8-(6-Hydroxymethyl-5-methylamino-pyridin-3-yl)-3-methyl-1-(2-methyl-6-trifluoromethyl-pyridin-3-yl)-1,3-dihydro-imidazo[4,5-c]quinolin-2-one]
13 | 75.7 nM | CCOc1cc(-c2ccc3ncc4c(c3c2)n(-c2cccnc2C)c(=O)n4C)cnc1C [Example 2.22, 8-(5-Ethoxy-6-methyl-pyridin-3-yl)-3-methyl-1-(2-methyl-pyridin-3-yl)-1,3-dihydro-imidazo[4,5-c]quinolin-2-one]
14 | 17.1 nM | CNc1cc(-c2ccc3ncc4c(c3c2)n(-c2ccc(F)nc2C)c(=O)n4C)cnc1CO [Example 7.11, 1-(6-Fluoro-2-methyl-pyridin-3-yl)-8-(6-hydroxymethyl-5-methylamino-pyridin-3-yl)-3-methyl-1,3-dihydro-imidazo[4,5-c]quinolin-2-one]
15 | 90.7 nM | COc1ccc(-n2c(=O)n(C)c3cnc4ccc(-c5cnc(N(C)C)nc5)cc4c32)c(Cl)n1 [Example 18.3, 1-(2-Chloro-6-methoxy-pyridin-3-yl)-8-(2-dimethylamino-pyrimidin-5-yl)-3-methyl-1,3-dihydro-imidazo[4,5-c]quinolin-2-one]

From patent US20100311714A1, “1H-IMIDAZO[4,5-c]QUINOLINONE COMPOUNDS” (priority 2009, published 2010)
